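Tested at 5 concentrations; 48 h exposure; 96-well plates; endpoints linearly interpolated, else capped at highest concentration. Here, GI50 denotes the concentration required for 50% inhibition of growth.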 Calls of active or inactive are those of the source. Cut-off read from the data, not from the text of the source: active = GI50 up to about 1.1 µM and inactive = higher.
What was measured:
Test in all cases: DTP human tumour cell line panel, 48 h
ACHN = test system: ACHN
HCT-15 = test system: HCT-15
OVCAR-8 = test system: OVCAR-8
NCI-H226 = test system: NCI-H226
HL-60 = test system: HL-60
OVCAR-3 = test system: OVCAR-3
CCRF-CEM = test system: CCRF-CEM
COLO 205 = test system: COLO 205
SF-539 = test system: SF-539
SF-268 = test system: SF-268
M14 = test system: M14
MCF7 = test system: MCF7
NCI-H522 = test system: NCI-H522
RXF 393 = test system: RXF 393
SNB-19 = test system: SNB-19
SK-MEL-5 = test system: SK-MEL-5
K562 = test system: K562
BT-549 = test system: BT-549
SR = test system: SR
T47D = test system: T47D
RPMI-8226 = test system: RPMI-8226
LOX IMVI = test system: LOX IMVI
KM12 = test system: KM12
SNB-75 = test system: SNB-75
DU-145 = test system: DU-145
IGROV-1 = test system: IGROV-1
SW-620 = test system: SW-620
TK-10 = test system: TK-10
EKVX = test system: EKVX
MDA-MB-435 = test system: MDA-MB-435
HCC 2998 = test system: HCC 2998
Hs-578T = test system: Hs-578T
Malme-3M = test system: Malme-3M
MDA-N = test system: MDA-N
NCI-H23 = test system: NCI-H23
HCT-116 = test system: HCT-116
A549 = test system: A549
SF-295 = test system: SF-295
PC-3 = test system: PC-3
UACC-62 = test system: UACC-62
UO-31 = test system: UO-31
MOLT-4 = test system: MOLT-4
HT-29 = test system: HT-29
UACC-257 = test system: UACC-257
MDA-MB-231 = test system: MDA-MB-231
NCI/ADR-RES = test system: NCI/ADR-RES
CAKI-1 = test system: CAKI-1
OVCAR-4 = test system: OVCAR-4
786-0 = test system: 786-0
SK-MEL-2 = test system: SK-MEL-2
U-251 = test system: U-251
SN12C = test system: SN12C
SK-OV-3 = test system: SK-OV-3
SK-MEL-28 = test system: SK-MEL-28
NCI-H460 = test system: NCI-H460
HOP-62 = test system: HOP-62
OVCAR-5 = test system: OVCAR-5

Measured: GI50

CC1=C(C(=O)OCCc2ccc([N+](=O)[O-])cc2)C(c2ccccc2C(F)(F)F)C(C(=O)OC(C)C)=C(C)N1 (configuration not stated)
3.78 µM: HCT-15
inactive: ACHN 3.06 µM | OVCAR-8 4.04 µM | NCI-H226 3.15 µM | HL-60 1.79 µM | OVCAR-3 3.48 µM | CCRF-CEM 2.84 µM | COLO 205 2.97 µM | SF-539 3.82 µM | SF-268 3.53 µM | M14 2.41 µM | MCF7 3.36 µM | NCI-H522 3.31 µM | RXF 393 1.87 µM | SNB-19 4.85 µM | SK-MEL-5 1.64 µM | K562 2.41 µM | BT-549 3.21 µM | SR 3.11 µM | T47D 3.12 µM | RPMI-8226 3.1 µM | LOX IMVI 2.96 µM | KM12 2.88 µM | SNB-75 4.04 µM | DU-145 9.16 µM | IGROV-1 4.88 µM | SW-620 3.68 µM | TK-10 3.78 µM | EKVX 2.05 µM | MDA-MB-435 3.84 µM | HCC 2998 4.92 µM | Hs-578T 2.12 µM | Malme-3M 3.49 µM | MDA-N 4.33 µM | NCI-H23 3.7 µM | HCT-116 2.92 µM | A549 2.81 µM | SF-295 2.68 µM | PC-3 1.98 µM | UACC-62 3.22 µM | UO-31 4.19 µM | MOLT-4 2.08 µM | HT-29 10.1 µM | UACC-257 3.86 µM | MDA-MB-231 3.79 µM | NCI/ADR-RES 2.75 µM | CAKI-1 2.9 µM | OVCAR-4 38 µM | 786-0 4.16 µM | SK-MEL-2 2.64 µM | U-251 3.52 µM | SN12C 3.12 µM | SK-OV-3 3.97 µM | SK-MEL-28 4.89 µM | NCI-H460 2.47 µM | HOP-62 3.51 µM | OVCAR-5 16.1 µM

— ChEMBL document CHEMBL1201862, “PubChem BioAssay data set” (2004)
